Reference: patent US7097965B2 (priority 1996, dated 2006)

System: mouse mastocytoma cells
Type: cell-based

## CC(=O)N[C@@H](CSC(=O)[C@]1([C@@H](O)C(C)C)NC(=O)[C@H](C)[C@@H]1O)C(=O)O [lactacystin]
  lysis of the target cells by CTLs: significantly decreased lysis
